# According to patent US20210087337A1, “COMPOUNDS, COMPOSITIONS AND METHODS RELATED TO ANTIMICROBIAL APPLICATIONS” (VYOME THERAPEUTICS LIMITED, priority 2016, published 2021):
# Read-outs that look alike come from different tables or passages of the source.
# Columns and labels:
# HaCat cell line = test: Cytotoxicity MTT assay; format: cell-based, human
# Experimental: Different dilutions of compounds of the present disclosure in DMSO were used for the MTT assay so that the final concentration of DMSO in the assay was <5%. […] After 3 h incubation, MTT was removed and 100 μl of DMSO was added. Absorbance was measured in an ELISA reader at 570 nm. The assay controls were (a) medium control (medium without cells), (b) negative control (medium with cells but without the experimental compound), (iii) positive control (medium with cells and with 50 μM camptothecin). The experiment was done in triplicates and the data plotted as viability of cells in percentage.
# [1] = test system: S. epidermidis ATCC 35984 biofilm; test: S. epidermidis biofilm disruption assay (MTT); format: cell-based; settings: for EC50: Staphylococcus epidermidis, ATCC35984, read-out: Concentration (mg/ml) to disrupt 50% biofilm
# Experimental: Materials: Brain heart infusion broth, S. epidermidis ATCC 35984, 96 well plates, Autoclave, Incubator, 0.05% MTT (3-(4,5-Dimethylthiazol-2-yl)-2,5-Diphenyltetrazolium Bromide) reagent prepared in water, Multiwell Plate Reader.
# (§1) Method: S. epidermidis ATCC 35984 was grown in Brain Heart Infusion Agar (BHIA) at 37° C. for 24 h. The loop full of bacterial culture was suspended in sterile water and adjusted the turbidity to 0.1 OD at 600 nm in UV—Visual spectrophotometer (approximately 1.5×10^8) and further diluted (100 times with sterile BHI broth), 100 μL of culture suspension was added into 96 well plate and plates were incubated at 37° C. for 48 h for biofilm formation. The biofilm was washed twice with sterile water to remove the planktonic cells. Then biofilm was treated with 100 μL of BHI broth suspended with various concentrations of compounds of the present disclosure, and plates were further incubated at 37° C. for 24 h. The minimum biofilm disruption concentration (MBDC) was determined by staining the biofilm with MTT reagent incubated plates at 37° C. for 2 h. The precipitate was dissolved in 100 μl of dimethyl sulfoxide (DMSO) and the absorbance was measured at 600 nm in multi well plate reader. The minimum biofilm disruption concentration was calculated as subtracting the MTT OD value of drug treated with 48 h growth control.
# [2] = test system: biofilm formed by gram positive, gram negative pathogen; test: Biofilm disruption activity, general statement; format: cell-based; settings: embodiment statement
# Experimental: as §1
# (§2) Method: E. coli ATCC BAA196 was grown in Brain Heart Infusion Agar (BHIA) at 37° C. for 24 h. The loop full of bacterial culture was suspended in sterile water and the turbidity to 0.1 OD at 600 nm in UV—Visual spectrophotometer (approximately 1.5×10^8) and further diluted (100 times with sterile BHI broth+1% glucose), 100 μL of culture suspension was added into 96 well plate and plates were incubated at 37° C. for 24 h for biofilm formation. The biofilm was washed twice with sterile water to remove the planktonic cells. Then biofilm was treated with 100 μL of BHI broth+1% glucose suspended with various concentrations of compounds of the present disclosure, and plates were further incubated at 37° C. for 24 h. The minimum biofilm disruption concentration (MBDC) was determined by staining the biofilm with MTT reagent incubated plates at 37° C. for 2 h, and the precipitate was dissolved in 100 μl of dimethyl sulfoxide (DMSO) and the absorbance was measured at 600 nm in multi well plate reader. The minimum biofilm disruption concentration was calculated by subtracting the MTT OD value of drug treated with 24 h growth control.
# [3] = test system: E. coli ATCC BAA196 biofilm; test: E. coli biofilm disruption assay (MTT); format: cell-based; settings: for Minimum biofilm disruption concentration: 24 h biofilm, 24 h treatment, MTT
# Experimental: Materials: Brain heart infusion broth+1% glucose, Escherichia coli ATCC BAA196, 96 wells plate, Autoclave, Incubator, MTT, Multiwell Plate Reader.
# as §2
# [4] = test system: Candida albicans (CCARM-14009); test: MIC by micro broth dilution (CLSI); format: cell-based; settings: for MIC: C. albicans CCARM 14009
# Experimental: (§3) Materials: Brain heart infusion broth, Bacterial and fungal cultures, 96 wells plate, Autoclave, Incubator. The microbial strains used in the validation study/testing were procured from MTCC (Chandigarh, India)—S. aureus (MTCC-6908), E. coli (MTCC-1687); NCIM (Pune, India)—E. aerogenes (NCIM-5139); ATCC (USA): S. aureus (ATCC-43300), S. epidermidis (ATCC-35984), P. aeruginosa (ATCC-27853), A. baumanii (ATCC-19606), K. pneumoniae (ATCC-13883), E. coli (ATCC-BAA196); CCARM (Korea)—Candida albicans (CCARM-14009), P. aeruginosa (CCARM-2161) and A. baumanii (CCARM-12001).
# (§4) Method: MIC of present molecules were determined by micro broth dilution method as per the Clinical and Laboratory Standards Institute (CLSI) guidelines. Microbial strains were cultured in appropriate media [Brain Heart Infusion Agar (BHIA) for bacteria and Sabouraud dextrose broth (SDB) for Candida] at 37° C. for 24 hours. […] For inoculum, microbial culture turbidity was adjusted to 0.1 optical density (OD) at 600 nm in UV—Visual spectrophotometer (approximately 1.5×10^8 cells/ml) and further diluted (100 times with sterile media). Diluted culture suspension (100 μl) was added to each well except sterility control wells (column 12 of 96 well plate). Column 11 of 96 well plate was used as growth control and vehicle control. The plates were incubated at 37° C. for 24 h. The MIC of the test compounds were determined by observing the lowest concentration of test compound that prevented the visual bacterial growth.
# [5] = test system: S. epidermidis (ATCC-35984); test: MIC by micro broth dilution (CLSI); format: cell-based
# Experimental: as §3, §4
# S. aureus (MTCC-6908) = test: MIC by micro broth dilution (CLSI); format: cell-based
# Experimental: as §3, §4
# S. epidermidis S12-1 = test: MIC by micro broth dilution (CLSI); format: cell-based; settings: Staphylococcus epidermidis, S121
# [6] = Water solubility as described; format: physicochemical
# [7] = test system: Bacterial and fungal cultures; test: MIC test, overall antimicrobial activity in words; format: cell-based; settings: overall statement on MIC results
# Experimental: as §3
# as §4, with “Column 11 of 96 well plate was used as growth control and vehicle control. The plates were incubated at 37° C. for 24 h.” left out
# MRSA = test: MIC test, text summary against MRSA; format: cell-based, S. aureus
# Experimental: as §3
# as §4, with “Column 11 of 96 well plate was used as growth control and vehicle control. The plates were incubated at 37° C. for 24 h.” left out
# E. coli (ATCC-BAA196) = test: MIC by micro broth dilution (CLSI); format: cell-based
# Experimental: as §3, §4
# [8] = test system: A. baumannii [ATCC 19606]; test: MIC by micro broth dilution (CLSI); format: cell-based
# Experimental: as §3, §4
# E. aerogenes (NCIM-5139) = test: MIC by micro broth dilution (CLSI); format: cell-based
# Experimental: as §3, §4
# S. aureus (ATCC-43300) = test: MIC by micro broth dilution (CLSI); format: cell-based
# Experimental: as §3, §4
# [9] = test system: K. pneumoniae [ATCC 1388]; test: MIC by micro broth dilution (CLSI); format: cell-based
# Experimental: as §3, §4
# [10] = test system: P. aeruginosa (ATCC-27853); test: MIC by micro broth dilution (CLSI); format: cell-based
# Experimental: as §3, §4
# E. coli (MTCC-1687) = test: MIC by micro broth dilution (CLSI); format: cell-based
# Experimental: as §3, §4
# E. coli = test: MIC test, text summary against E. coli (strain not stated); format: cell-based
# Experimental: as §3
# as §4, with “Column 11 of 96 well plate was used as growth control and vehicle control. The plates were incubated at 37° C. for 24 h.” left out
# Gram negative pathogens = test: MIC test, against Gram negative pathogens; format: cell-based
# Experimental: as §3
# as §4, with “Column 11 of 96 well plate was used as growth control and vehicle control. The plates were incubated at 37° C. for 24 h.” left out
# Gram positive pathogen = test: MIC test, text summary against Gram positive pathogens; format: cell-based
# Experimental: as §3
# as §4, with “Column 11 of 96 well plate was used as growth control and vehicle control. The plates were incubated at 37° C. for 24 h.” left out
# [11] = 48 h biofilm, 24 h treatment, MTT
# [12] = Candida albicans, CCARM14009, read-out: MIC
# [13] = Staphylococcus epidermidis, ATCC35984, read-out: MIC
# [14] = Staphylococcus aureus, MTCC6908, read-out: MIC
smiles,measurement,setting,value
"N=C(NCCCCCCNC(=N)NC(=N)Nc1ccc(Cl)cc1)NC(=N)Nc1ccc(Cl)cc1 [Chlorohexidine, reference compound]",IC50 in HaCat cell line,"HaCat cell line; 48 h, MTT",~200 µg/mL
"CC(=O)N[C@@H](CS)C(=O)O [NAC, N-acetyl cysteine, reference compound]",EC50,[1]; [11],> 4 mg/mL
"CCCCCCCCCCCCSC[C@H](NC(C)=O)C(=O)O [SMP-001, N-Acetyl-S-dodecyl-L-cysteine]",anti-biofilm activity against S. epidermidis,[1],destroy biofilm effectively
same,EC50,[1]; [11],0.02 to 0.125 mg/mL
same,biofilm disruption activity,[2],biofilm disruption activity
same,Minimum biofilm disruption concentration,[3],0.5 to 2.0 mg/mL
"CCCCCCCCCCCCSC[C@@H](NC(C)=O)C(=O)N(CCCN)CCCN.Cl.Cl [SMP-002, (S)-2-Acetamido-N,N-bis(3-aminopropyl)-3-(dodecylthio)propanamide di-hydrochloride]",anti-biofilm activity against S. epidermidis,[1],maintain anti-biofilm activity like SMP-001
same,EC50,[1]; [11],0.01 mg/mL
same,biofilm disruption activity,[2],biofilm disruption activity
same,Minimum biofilm disruption concentration,[3],2 to 4 mg/mL
same,MIC,[4]; [12],100 µg/mL
same,MIC,[5]; [13],8 to 13 µg/mL
same,MIC,S. aureus (MTCC-6908); [14],25 µg/mL
same,MIC,S. epidermidis S12-1,25 µg/mL
"CCCCCCCCC/C=C\CCCCCCCCSC[C@@H](NC(C)=O)C(=O)N(CCCN)CCCN.Cl.Cl [SMP-047, (S,Z)-2-Acetamido-N,N-bis(3-aminopropyl)-3-(nonadec-9-en-1-ylthio)propanamide di-hydrochloride]",EC50,[1]; [11],> 2 mg/mL
same,water solubility,[6],water soluble
same,biofilm disruption activity,[2],biofilm disruption activity
same,antimicrobial / antibacterial activity,[7],broad spectrum antibacterial activity
same,antibacterial activity against MRSA,MRSA,potent antibacterial activity
same,IC50,"HaCat cell line; Homo sapiens, HaCaT, 48 h, MTT",200 to 400 µg/mL
same,safety profile in HaCaT cell lines,HaCat cell line; compared with PHMB and chlorohexidine,better safety profile
same,MIC,"E. coli (ATCC-BAA196); Escherichia coli, ATCCBAA196, read-out: MIC",100 µg/mL
same,antifungal activity against Candida species,[4],potent antifungal activity
same,MIC,[4]; [12],50 µg/mL
same,MIC,"[8]; Acinetobacter baumannii, ATCC19606, read-out: MIC",> 256 µg/mL
same,MIC,"E. aerogenes (NCIM-5139); Klebsiella aerogenes, NCIM5139, read-out: MIC",> 256 µg/mL
same,MIC,[5]; [13],6.25 µg/mL
same,MIC,"S. aureus (ATCC-43300); Staphylococcus aureus, ATCC43300, read-out: MIC",6.25 µg/mL
same,MIC,S. aureus (MTCC-6908); [14],6.25 µg/mL
same,MIC,"[9]; Klebsiella pneumoniae, ATCC1388, read-out: MIC",> 256 µg/mL
same,MIC,"[10]; Pseudomonas aeruginosa, ATCC27853, read-out: MIC",> 256 µg/mL
same,MIC,"E. coli (MTCC-1687); Escherichia coli, MTCC1687, read-out: MIC",0.8 µg/mL
same,activity towards resistant E. coli,E. coli,potent
same,MIC,S. epidermidis S12-1,50 µg/mL
CCCCCCCCCCCCSC[C@@H](NC(C)=O)C(=O)N(CCCCNC(=O)[C@@H](N)CNC(=N)N)CCCNC(=O)[C@@H](N)CNC(=N)N.Cl [SMP-051],Concentration (mg/ml) to disrupt 50% biofilm,[1]; [11],>2 mg/mL
same,activity against Gram negative pathogens,Gram negative pathogens,very efficient
same,improvement of antibacterial activity in comparison to SMP-002,Gram negative pathogens; against Gram negative pathogen,100-150 fold
same,biofilm disruption activity,[2],biofilm disruption activity
same,antimicrobial / antibacterial activity,[7],broad spectrum antibacterial activity
same,disruption of E. coli biofilm,[3],the best
same,Minimum biofilm disruption concentration,[3],0.25 to 0.5 mg/mL
same,improvement of antibacterial activity in comparison to SMP-002,Gram positive pathogen,10-20 fold
same,IC50 in HaCat cell line,"HaCat cell line; 48 h, MTT",~25.0 µg/mL
same,MIC,E. coli (ATCC-BAA196),100 µg/mL
same,MIC,[4],200 µg/mL
same,MIC,[8],128.0 µg/mL
same,MIC,E. aerogenes (NCIM-5139),8.0 µg/mL
same,MIC,[5],1.6 µg/mL
same,MIC,S. aureus (ATCC-43300),6.25 µg/mL
same,MIC,S. aureus (MTCC-6908),6.25 µg/mL
same,MIC,[9],8.0 µg/mL
same,MIC,[10],16.0 µg/mL
same,MIC,E. coli (MTCC-1687),1.6 µg/mL
